In US4788188A, “Quinolylglycinamide derivatives, the process for preparation thereof and their therapeutic application as psychotropic drugs” (Sanofi (S.A.), priority 1985, dated 1988):
Where two headings read alike, the source gives them in different places.

Legend:
[1] = Hypnotic activity (method of JANSEN); format: in vivo, mice; conditions: 95% confidence interval (FINNEY); for ED50: Mus musculus, ip, read-out: 50% hypnotic dose (confidence interval)
Method: The hypnotic activity of the compounds of the present invention was assessed by the method of JANSEN (J. Med. Pharm. Chem., 1959, 1, 281).
After treatment i.p., each mouse is carefully placed on its back. […] In each batch (10 mice per dose), the percentage of sleeping animals is noted. The 50% hypnotic dose and its 95% confidence interval were calculated according to FINNEY's (1971) method.

[2] = Hypnotic activity (method of JANSEN); format: in vivo, mice; conditions: 95% confidence interval (FINNEY); for ED50: Mus musculus, iv, read-out: 50% hypnotic dose (confidence interval); for 50% hypnotic dose (confidence interval): i.v.
benzodiazepine receptors = assay: Affinity for benzodiazepine receptors: inhibition of specific binding of [3H]flunitrazepam (WASTEK et al., modified); parameters: species or system rats; conditions: 50% inhibition of specific binding of [3H]flunitrazepam, rat brain membranes
Method: This study was performed according to the technique of WASTEK et al., (Europ. J. Pharmacol., 1978, 50, 445-447) slightly modified.
Rats are sacrificed by decapitation, and the brain is removed, ground, suspended, centrifuged and resuspended.
Samples of this suspension are incubated in the presence of [^3 H]flunitrazepam, alone or in the presence of increasing concentrations of the test compound.
The radioactivity bound on the membranes is then determined by liquid scintillation.
The concentration of product which 50% inhibits the specific binding of [^3 H]flunitrazepam (IC50) is thereby determined.

pentetrazole seizures = assay: Anticonvulsant activity: protection against pentetrazole seizures (EVERETT and RICHARDS); format: in vivo, mice; conditions: Mus musculus, po, 0.5 h, pentetrazole 125 mg/kg subcutaneously, no tonic seizures during 30 minutes, 95% confidence limits (FINNEY), read-out: ED50 (Confidence interval)
Method: The protective effect produced by the compound of the inventon against pentetrazole seizures was studied.
This test was carried out according to the method of EVERETT and RICHARDS (J. Pharm. Exp. Ther., 1944, 81, 402-407). The test products and reference products were administered orally (suspended in gum arabic) to batches of 10 mice, 30 minutes […] pentetrazole (125 mg/kg subcutaneously).

[3] = comparison, L. PIERI et al., Arzneim. Forsch., 1981; route not given; cited from earlier work
food neophobia = assay: Anxiolytic activity: food neophobia test; format: in vivo, mice; conditions: 30 minutes after treatment
Method: This activity was studied by the food neophobia test. In effect, a pronounced inhibition of the feed intake can be obtained in mice when both the food and the enclosure are unfamiliar to the aninal (R. J. STEPHENS, Brit. J. Pharmacol., 1973, 47, 145 P). All anxiolytics specifically counteract neophobia phenomena.
30 minutes after oral or subcutaneous treatment with the test derivatives and the reference products, the mice, fasted for 16 to 20 hours, are isolated in a translucent enclosure and placed in the presence of an unfamiliar food for 5 minutes.
The amounts consumed are evaluated in proportion to the weight of the animal.
In each batch, the mean consumption and also the percentage variation relative to the control batch are calculated in this manner.

[4] = Acute toxicity in mice (oral); conditions: mouse, in vivo, oral administration
From the text: The acute, chronic, sub-chronic and delayed toxicities were dealt with in this study. Performed on various animal species, the trials brought out the low toxicity and good tolerability of the derivatives of the invention.

Row | Structure (SMILES) | ED50 [1] [mg/kg] | ED50 [2] [mg/kg] | IC50 (benzodiazepine receptors) [nM] | ED50 (pentetrazole seizures) [mg/kg] | other results
1 | CCCN(CCC)C(=O)CNc1c(C(=O)OCC)cnc2ccc(OC)cc12 [Derivative 14, 2-(3-Ethoxycarbonyl-6-methoxy-4-quinolyl)amino-N,N-dipropylacetamide] | 25 | 5 | 17 | 40 | –
2 | CCCN(CCC)C(=O)CNc1c(C(=O)OCC)cnc2ccc(Cl)cc12 [12 (Sulphate)] | – | – | – | – | 50% hypnotic dose (confidence interval) ([1]; i.p.): 30 (14-39) mg/kg; 50% hypnotic dose (confidence interval) [2]: 6 (4-15) mg/kg
3 | Cc1ncc2n1-c1ccc(Cl)cc1C(c1ccccc1F)=NC2 [midazolam] | – | – | – | – | 50% hypnotic dose [3]: 23 mg/kg
4 | CCOC(=O)c1cnc2ccc(OCC)cc2c1NCC(=O)N1CCCCC1 [Derivative 33, 1-{2-[(3-Ethoxycarbonyl-6-ethoxy-4-quinolyl)amino]acetyl}piperidine] | 15 | 5 | 54 | – | –
5 | CCCN(CCC)C(=O)CNc1c(C(=O)OCC)cnc2ccc(Cl)cc12 [Derivative 12, 2-(3-Ethoxycarbonyl-6-chloro-4-quinolyl)amino-N,N-dipropylacetamide] | – | – | 16 | 10 | Percentage increase (food consumption relative to control batch) (food neophobia; dose 32 mg/kg, PO): 75%
6 | CCOC(=O)c1cnc2ccc(Cl)cc2c1N(C)CC(=O)N(CC)CC [Derivative 58, [N'-(3-Ethoxycarbonyl-6-chloro-4-quinolyl)-N'-methylamino]-N,N-diethylacetamide] | – | – | – | 44 | Percentage increase (food consumption relative to control batch) (food neophobia; dose 64 mg/kg, SC): 80%
7 | CCOC(=O)c1cnc2ccc(C(F)(F)F)cc2c1NCC(=O)N(CC)CC [Derivative 4, 2-(3-Ethoxycarbonyl-6-trifluoromethyl-4-quinolyl)amino-N,N-diethylacetamide] | 27 | 5 | 97 | – | –
8 | CCCC(C)(COC(N)=O)COC(N)=O [Meprobamate, reference compound] | – | – | – | 36 | Percentage increase (food consumption relative to control batch) (food neophobia; dose 60 mg/kg, PO): 95%
9 | CCN(CC)C(=O)CNc1c(C(=O)O)cnc2ccc(C)cc12 [Derivative 44, 2-(3-Carboxy-6-methyl-4-quinolyl)amino-N,N-diethylacetamide] | – | – | 46 | – | Percentage increase (food consumption relative to control batch) (food neophobia; dose 32 mg/kg, SC): 50%
10 | CCOC(=O)c1cnc2ccc(OCC)cc2c1NCC(=O)N(CC)CC [Derivative 8] | 18 | 5 | 133 | – | –
11 | CCN(CC)C(=O)CNc1c(C(=O)O)cnc2ccc(Cl)cc12 [Derivative 43, 2-(3-Carboxy-6-chloro-4-quinolyl)amino-N,N-diethylacetamide] | – | – | 7 | – | Percentage increase (food consumption relative to control batch) (food neophobia; dose 64 mg/kg, SC): 75%; LD50 [4]: 2200 mg/kg
12 | CCOC(=O)c1cnc2ccc(Cl)cc2c1NCC(=O)N(CC)CC [Derivative 1, 2-(3-Ethoxycarbonyl-6-chloro-4-quinolyl)amino-N,N-diethylacetamide] | – | – | 85 | 49 | LD50 [4]: 1800 mg/kg
13 | CCCN(CCC)C(=O)CN(C)c1c(C(=O)OCC)cnc2ccc(Cl)cc12 [Derivative 59, [N'-(3-Ethoxycarbonyl-6-chloro-4-quinolyl)-N'-methylamino]-N,N-dipropylacetamide] | – | – | – | 16 | Percentage increase (food consumption relative to control batch) (food neophobia; dose 32 mg/kg, PO): 146%
14 | CCCN(CCC)C(=O)CNc1c(C(=O)OCC)cnc2ccc(Br)cc12 [Derivative 17, 2-(3-Ethoxycarbonyl-6-bromo-4-quinolyl)amino-N,N-dipropylacetamide] | – | – | 8 | 18 | Percentage increase (food consumption relative to control batch) (food neophobia; dose 32 mg/kg, SC): 75%
15 | CCCN(CCC)C(=O)CNc1c(C(=O)OCC)cnc2ccc(C)cc12.Cl [Derivative 13, 2-(3-Ethoxycarbonyl-6-methyl-4-quinolyl)amino-N,N-dipropylacetamide hydrochloride] | – | – | 25 | 25 | Percentage increase (food consumption relative to control batch) (food neophobia; dose 16 mg/kg, PO): 75%
16 | CCOC(=O)c1cnc2ccc([N+](=O)[O-])cc2c1NCC(=O)N(CC)CC [Derivative 5, 2-(3-Ethoxycarbonyl-6-nitro-4-quinolyl)amino-N,N-diethylacetamide] | 25 | 9 | 97 | 50 | –
17 | CCCN(CCC)C(=O)CNc1c(C(=O)OCC)cnc2ccc(Cl)cc12 [12 (Phosphate)] | 38 | – | – | – | 50% hypnotic dose (confidence interval) [2]: 2 (1-4) mg/kg
18 | CCCC(C)C1(CC)C(=O)NC(=S)NC1=O (centres unmarked) [thiopental sodium] | – | – | – | – | 50% hypnotic dose [3]: 17 mg/kg
19 | CN1C(=O)CN=C(c2ccccc2)c2cc(Cl)ccc21 [Diazepam, diazepam, reference compound] | – | – | 10 | – | Percentage increase (food consumption relative to control batch) (food neophobia; dose 4 mg/kg, PO): 80%
20 | CCOC(=O)c1cnc2ccc(OC)cc2c1NCC(=O)N(CC)CC [Derivative 3, 2-(3-Ethoxycarbonyl-6-methoxy-4-quinolyl)amino-N,N-diethylacetamide] | 27 | 7 | 55 | – | LD50 [4]: 1650 mg/kg
21 | CCOC(=O)c1cnc2ccc(Cl)cc2c1NCC(=O)N1CCCC(C)C1 (centres unmarked) [Derivative 38, 1-{2-[(3-Ethoxycarbonyl-6-chloro-4-quinolyl)amino]acetyl}-3-methylpiperidine] | 28 | 9 | 65 | 46 | –
22 | CNC1=Nc2ccc(Cl)cc2C(c2ccccc2)=[N+]([O-])C1 [Chlordiazepoxide, chlordiazepoxide, reference compound] | – | – | 950 | 7 | Percentage increase (food consumption relative to control batch) (food neophobia; dose 16 mg/kg, PO): 73%
